# Experimental data reported in paper PMC8626469, “Helicobacter pylori FabX contains a [4Fe-4S] cluster essential for unsaturated fatty acid synthesis” (Nature Communications, 2021).
# Target: T1, FabX (Helicobacter pylori, UniProt A0A0B2E3F3)
# T1 construct: gene C2842_03950; full length, 363 residues; expressed in E. coli BL21(DE3) Rosetta; monomer in the asymmetric unit; holds FMN and a [4Fe-4S] cluster
# T1 sequence (A0A0B2E3F3 1-363): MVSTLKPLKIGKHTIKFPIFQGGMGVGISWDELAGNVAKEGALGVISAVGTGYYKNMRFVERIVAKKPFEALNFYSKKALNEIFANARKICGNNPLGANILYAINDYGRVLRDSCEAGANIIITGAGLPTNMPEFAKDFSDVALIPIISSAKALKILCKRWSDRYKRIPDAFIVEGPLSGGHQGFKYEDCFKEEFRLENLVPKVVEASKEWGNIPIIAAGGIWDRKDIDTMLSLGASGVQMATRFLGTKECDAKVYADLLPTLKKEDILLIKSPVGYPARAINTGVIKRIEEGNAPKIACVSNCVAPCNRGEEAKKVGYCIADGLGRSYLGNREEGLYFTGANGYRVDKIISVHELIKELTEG
# Assay: X-ray crystal structure, […] Å
# Assay type: binding
# Settings: noncovalent in TIM-barrel core; also present in complexes with holo-ACP and octanoyl-ACP
smiles,measurement,value
Cc1cc2nc3c(=O)[nH]c(=O)nc-3n(C[C@H](O)[C@H](O)[C@H](O)COP(=O)(O)O)c2cc1C [FMN],"X-ray crystal structure, 1.7 Å",a FMN molecule is noncovalently bound inside the core
